Source: US7829118B1, “Modified hyaluronic acid polymer compositions and related methods” (Carbylan Biosurgery, Inc., priority 2009, dated 2010)
Where “and” joins values, the source holds several entries; their conditions need not be identical. Equal entries are not always repeated.

Tested on: Femoral Cartilage (medial femoral condyle) of goat stifle joint
Test: Modified Mankin scoring of femoral cartilage after intra-articular injection in goats (Example 34)
Assay type: in vivo
Conditions: for Total Mankin Score / Mankin Score: Tide Mark Integrity / Mankin Score: Cells / Mankin Score: Safranin-O Stain / Mankin Score: Structure: RFC
Protocol: A lightly crosslinked hydrogel prepared by reaction of vinyl-sulfone-modified hyaluronic acid with PEG-dithiol (HA-VS-PEG-(SH)2), containing the corticosteroid, triamcinolone acetonide, was injected into the intraarticular space of the stifle joint of female goats. Morphological, synovial fluid and histological examinations were conducted to evaluate local and systemic effects of such injections. Details of the study are provided below.
All test materials were stored at room temperature prior to use. For each Test or Control Material, a 1.5 ml dosage was prepared for each individual intra-articular injection.
Study design was as follows.
The basic procedure for injection was identical for all subjects. All injections were performed under strict asepsis. The animals were anesthetized with an intravenous injection of Diazepam (0.1-0.5 mg/kg) and Ketamine (4.4-7.5 mg/kg) to effect. Each knee was physically examined for drawer, range of motion, swelling, temperature, crepitus, patella tracking, and valgus/varus abnormalities
All injections were conducted utilizing routine aseptic techniques. The left and right stifles were prepared for injection by clipping the areas, then cleansing them with chlorohexidine scrub. The animal was placed in dorsal recumbency. The right stifle was cleansed with chlorohexidine scrub alternating with 70% isopropyl alcohol three times and painted with iodine solution.
A standard technique was used to inject each stifle joint. A 2-inch by 21gauge sized sterile needle was introduced into the intra-articular space via an anteromedial approach. The lateral intercondylar notch wall of the medial femoral condyle was felt and the needle backed slightly off. 1.5 ml of the appropriate Test Material was injected into the right joint. The injection needle was removed and pressure was maintained on the injection site. The injected stifle joint was then cycled 20-times through a full range of motion. Immediately following this, the left stifle joint was cleansed with chlorohexidine scrub alternating with 70% isopropyl alcohol three times and painted with iodine solution and 1.5 ml of the Control Material was injected into the left stifle joint in a similar manner as described above for the right stifle. The injection needle was removed and pressure maintained on the injection site. The injected stifle joint was then cycled 20-times through a full range of motion.
Necropsy: Animals were humanely sacrificed at either 14 days or 28 days day post initial injection with an intravenous injection consisting of Diazepam 0.22 mg/kg and Ketamine 10 mg/kg for induction of general anesthesia. Following this, the anesthetized animals were given an IV overdose of concentrated potassium chloride (KCl) until the cardiac arrest had been verified.
Immediately after dissection and following gross joint surface evaluation a sagital section of each joint was cut through the medial femoral condyle (MFC). These sections were placed individually in 10% neutral buffered formalin. The fixed tissue was shipped by overnight carrier to Premier Laboratories for processing. The right and left MFC sections were processed using standard histological techniques and stained with hematoxylin and eosin (H&E) and Safranin-O (SAF-O) with a fast green counter stain. The slides from the MFC sections were evaluated by the Mankin Scoring System for osteoarthritis as described in Table 12.

[1] = Group 3, 2mg/ml, 14 day evaluation, MEAN
[2] = Group 7, 2mg/ml, 28 day evaluation, MEAN
[3] = Group 4, 8mg/ml, 14 day evaluation, MEAN
[4] = Group 8, 8mg/ml, 28 day evaluation, MEAN, animal that died prematurely not included

CC1(C)O[C@@H]2C[C@H]3[C@@H]4CCC5=CC(=O)C=C[C@]5(C)[C@@]4(F)[C@@H](O)C[C@]3(C)[C@]2(C(=O)CO)O1 [Triamcinolone Acetonide, triamcinolone acetonide] was tested, and the “loss of Safranin O staining intensity portion of the modified Mankin score compared to either Groups 5 or 6” value (Day 28, Groups 7 and 8 (2 and 8 mg/ml)) was “mild increase” and the “change in modified Mankin scores from Day 14 to Day 28” value (goat stifle, 1.5 ml intra-articular) was “increase”.

In the case of CC1(C)O[C@@H]2C[C@H]3[C@@H]4CCC5=CC(=O)C=C[C@]5(C)[C@@]4(F)[C@@H](O)C[C@]3(C)[C@]2(C(=O)CO)O1 [Triamcinolone Acetonide 2mg/ml, triamcinolone acetonide], the “Total Mankin Score” value (Group 3, 2mg/ml, 14 day evaluation, right stifle 1.5 ml intra-articular, individual goats, maximal 14, normal 0) is reported as 4.0 and 7.0 and 8.0, the “Mankin Score: Tide Mark Integrity” value (Group 3, 2mg/ml, 14 day evaluation, right stifle 1.5 ml intra-articular, individual goats, score 0-1) is reported as 0.0 and the “Mankin Score: Cells” value (Group 3, 2mg/ml, 14 day evaluation, right stifle 1.5 ml intra-articular, individual goats, score 0-3) is reported as 0.0 and 1.0 (2×). For the same compound, the “Mankin Score: Safranin-O Stain” value (Group 3, 2mg/ml, 14 day evaluation, right stifle 1.5 ml intra-articular, individual goats, score 0-4) was 4.0 and 2.0 and 3.0, the “Mankin Score: Structure” value (Group 3, 2mg/ml, 14 day evaluation, right stifle 1.5 ml intra-articular, individual goats, score 0-6) was 0.0 and 4.0 (2×) and the “Mankin Score: Cells” value [1] was 0.7. For the same compound, the “Mankin Score: Safranin-O Stain” value [1] was 3.0, the “Mankin Score: Structure” value [1] was 2.7 and the “Mankin Score: Tide Mark Integrity” value [1] was 0.0. The “Total Mankin Score” value [1] was 6.3, the “Total Mankin Score” value (Group 7, 2mg/ml, 28 day evaluation, right stifle 1.5 ml intra-articular, individual goats, maximal 14, normal 0) was 6.0 and 9.0 and 10.0 and the “Mankin Score: Tide Mark Integrity” value (Group 7, 2mg/ml, 28 day evaluation, right stifle 1.5 ml intra-articular, individual goats, score 0-1) was 0.0. For the same compound, the “Mankin Score: Cells” value (Group 7, 2mg/ml, 28 day evaluation, right stifle 1.5 ml intra-articular, individual goats, score 0-3) was 2.0 (2×) and 3.0, the “Mankin Score: Safranin-O Stain” value (Group 7, 2mg/ml, 28 day evaluation, right stifle 1.5 ml intra-articular, individual goats, score 0-4) was 4.0 and 3.0 (2×) and the “Mankin Score: Structure” value (Group 7, 2mg/ml, 28 day evaluation, right stifle 1.5 ml intra-articular, individual goats, score 0-6) was 0.0 and 4.0 (2×). The “Mankin Score: Cells” value [2] was 2.3, the “Mankin Score: Safranin-O Stain” value [2] was 3.3 and the “Mankin Score: Structure” value [2] was 2.7. For the same compound, the “Mankin Score: Tide Mark Integrity” value [2] was 0.0 and the “Total Mankin Score” value [2] was 8.3.

In the case of CC1(C)O[C@@H]2C[C@H]3[C@@H]4CCC5=CC(=O)C=C[C@]5(C)[C@@]4(F)[C@@H](O)C[C@]3(C)[C@]2(C(=O)CO)O1 [Triamcinolone Acetonide 8mg/ml, triamcinolone acetonide], the “Total Mankin Score” value (Group 4, 8mg/ml, 14 day evaluation, right stifle 1.5 ml intra-articular, individual goats, maximal 14, normal 0) is reported as 9.0 and 3.0 and 4.0, the “Mankin Score: Tide Mark Integrity” value (Group 4, 8mg/ml, 14 day evaluation, right stifle 1.5 ml intra-articular, individual goats, score 0-1) is reported as 0.0 and the “Mankin Score: Cells” value (Group 4, 8mg/ml, 14 day evaluation, right stifle 1.5 ml intra-articular, individual goats, score 0-3) is reported as 1.0 and 0.0 (2×). For the same compound, the “Mankin Score: Safranin-O Stain” value (Group 4, 8mg/ml, 14 day evaluation, right stifle 1.5 ml intra-articular, individual goats, score 0-4) was 3.0 (2×) and 4.0, the “Mankin Score: Structure” value (Group 4, 8mg/ml, 14 day evaluation, right stifle 1.5 ml intra-articular, individual goats, score 0-6) was 5.0 and 0.0 (2×) and the “Mankin Score: Cells” value [3] was 0.3. For the same compound, the “Mankin Score: Safranin-O Stain” value [3] was 3.3, the “Mankin Score: Structure” value [3] was 1.7 and the “Mankin Score: Tide Mark Integrity” value [3] was 0.0. For the same compound, the “Total Mankin Score” value [3] was 5.3, the “Total Mankin Score” value (Group 8, 8mg/ml, 28 day evaluation, right stifle 1.5 ml intra-articular, individual goats (3588 RFC* died prematurely, 19 days), maximal 14, normal 0) was 12.0 and 6.0 and the “Total Mankin Score” value (Group 8, 8mg/ml, 28 day evaluation, right stifle 1.5 ml intra-articular, individual goats (3588 RFC* died prematurely, 19 days), maximal 14, normal 0, listed as Triamcinolone Acetonide 8mg/m1) was 10.0. The “Mankin Score: Tide Mark Integrity” value (Group 8, 8mg/ml, 28 day evaluation, right stifle 1.5 ml intra-articular, individual goats (3588 RFC* died prematurely, 19 days), score 0-1) was 0.0, the “Mankin Score: Cells” value (Group 8, 8mg/ml, 28 day evaluation, right stifle 1.5 ml intra-articular, individual goats (3588 RFC* died prematurely, 19 days), score 0-3) was 3.0 and 1.0 and the “Mankin Score: Cells” value (Group 8, 8mg/ml, 28 day evaluation, right stifle 1.5 ml intra-articular, individual goats (3588 RFC* died prematurely, 19 days), score 0-3, listed as Triamcinolone Acetonide 8mg/m1) was 3.0. The “Mankin Score: Safranin-O Stain” value (Group 8, 8mg/ml, 28 day evaluation, right stifle 1.5 ml intra-articular, individual goats (3588 RFC* died prematurely, 19 days), score 0-4) was 4.0, the “Mankin Score: Safranin-O Stain” value (Group 8, 8mg/ml, 28 day evaluation, right stifle 1.5 ml intra-articular, individual goats (3588 RFC* died prematurely, 19 days), score 0-4, listed as Triamcinolone Acetonide 8mg/m1) was 3.0 and the “Mankin Score: Structure” value (Group 8, 8mg/ml, 28 day evaluation, right stifle 1.5 ml intra-articular, individual goats (3588 RFC* died prematurely, 19 days), score 0-6) was 5.0 and 1.0. For the same compound, the “Mankin Score: Structure” value (Group 8, 8mg/ml, 28 day evaluation, right stifle 1.5 ml intra-articular, individual goats (3588 RFC* died prematurely, 19 days), score 0-6, listed as Triamcinolone Acetonide 8mg/m1) was 4.0, the “Mankin Score: Cells” value [4] was 2.0 and the “Mankin Score: Safranin-O Stain” value [4] was 4.0. The “Mankin Score: Structure” value [4] was 3.0, the “Mankin Score: Tide Mark Integrity” value [4] was 0.0 and the “Total Mankin Score” value [4] was 9.0.
